From US11058700B2, “Macrocyclic lactones and uses thereof as modulators of purinergic receptors” (City of Hope, priority 2015, dated 2021)

Columns and labels:
[1] = system: murine and human TNBC cells; assay: Reactive oxygen species; assay type: cell-based, mouse
Experimental: Reactive oxygen and nitrogen species. Cancer cells in suspension were washed with PBS and loaded with 50 μM H2DCFDA (Molecular Probes, Life Technologies, D399) or 5 μM DAF-2 (Cayman Chemical, Catalog #85165) for 30 min at room temperature in the dark. Cells were washed twice with PBS and treated with various doses of Ivermectin in R10 medium. Cells were incubated for 1h in 5 ml FACS tubes at 37° C. and 5% CO2, and immediately analyzed by flow cytometry. Generation of intracellular ROS and NO results in corresponding increases in the GFP fluorescence of the H2DCFDA and DAF-2 probes, respectively.

breast cancer cells = assay: Induction of autophagy (GFP-LC3 puncta, Western blot LC3 / p62); assay type: cell-based, mouse, human
Experimental: FIGS. 6A-6E. Ivermectin induces autophagy. FIG. 6A: Ivermectin induces autophagy in breast cancer cells. MDA-MB-231 GFL-LC3 cells were treated with different doses of Ivermectin for 24 h and formation of green fluorescent puncta was evaluated by confocal fluorescence microscopy. FIG. 6B: Western blot confirming the induction of autophagy in both murine and human breast cancer cells, as evidenced by LC3 lipidation and autophagic degradation of p62(SQSTM1). […] MDA-MB-231 cells (triplicates) were treated with different doses of Ivermectin for up to 24h and surface stained with antibody-specific for the human M6P receptor versus isotype control. Similarly, 4T1.2 and MB231 cells were treated with different doses of Ivermectin for 4-24 h, and were stained with an antibody specific for both human and mouse CRT versus isotype control. Mean fluorescent intensity (MFI) values and ratios versus isotype control were calculated after gating on live/membrane-intact cells. FIG. 6D: Ivermectin (32 μM) induces release of HMGB1 from murine and human TNBC cells (triplicates). […] Asterisk (*) indicates p<0.05 relative to untreated or Ivermectin alone controls, respectively.
Western Blotting. […] Activation and cleavage of caspases was evaluated using antibodies specific for caspase-1 (NOVUS, NBP1-45433) and caspase-3 (Cell Signaling, 9665). […]

4T1.2 cells = assay: Colony assay, 4T1.2 cells seeded at 100 cells/well, colonies counted after a week; assay type: cell-based, mouse; details: extended exposure time (Ivermectin during the entire duration of the assay)
Experimental: (§1) FIGS. 1A-1H. Ivermectin kills breast cancer cells through a mixed apoptotic and necrotic mechanism. FIG. 1A: Mouse (4T1.2) and human (MDA-MB-231) TNBC cells manifest similar sensitivity to Ivermectin. Viability of cells treated with various doses of Ivermectin for 24 h. FIG. 1B: Extended exposure time reduces IC50 values to as low as 2 μM. 4T1.2 cells were seeded at 100 cells/well and individual colonies were counted after a week. Cancer cells were exposed to Ivermectin during the initial 24 h or during the entire duration of the assay. FIG. 1C: MDA-MB-231 breast cancer cells manifest higher sensitivity to Ivermectin compared to normal non-transformed human foreskin fibroblasts (HFFs). FIG. 1D: Flow cytometry analysis showing that cell death proceeds through two distinct pathways: a directly necrotic 7AAD-single positive or Annexin V/PS-single positive apoptotic pathway. FIG. 1E: Kinetics of necrotic versus apoptotic killing of 4T1.2 breast cancer cells. FIG. 1F: Ivermectin-induced cell death can be reversed by inhibition of various controlled cell death pathways. 4T1.2 cells were treated for 4 h with 32 μM Ivermectin in the presence of μM concentrations of Z-vad-fmk, Necrostatin-1, Digoxin, or VX-765, as indicated. FIG. 1G: Activation of Caspase-1, Caspase-3 and cleavage of PARP in 4T1.2 and MDA-MB-231 cells treated with 32 μM for 4 h. […]

[2] = system: MDA-MB-231 breast cancer cells; assay: Viability of breast cancer cells compared to normal fibroblasts; assay type: cell-based; details: MDA-MB-231 vs normal non-transformed human foreskin fibroblasts (HFFs)
Experimental: as §1, with “pathways.” for “pathways. 4T1.2 cells were treated for 4 h with 32 μM Ivermectin in the presence of μM concentrations of Z-vad-fmk, Necrostatin-1, Digoxin, or VX-765, as indicated. FIG. 1G: Activation of Caspase-1, Caspase-3 and cleavage of PARP in 4T1.2 and MDA-MB-231 cells treated with 32 μM for 4 h.”
Cell viability. […] Following treatment the plates were washed once with PBS and cell viability was measured using the acid phosphatase assay. […] Absorption at 405 nm was measured within 10 min using a multi-well plate reader. Mode of cell death and viability of cells in suspension was evaluated using flow cytometry. […]

CC[C@H](C)[C@H]1O[C@]2(CC[C@@H]1C)C[C@@H]1C[C@@H](C/C=C(\C)[C@@H](O[C@H]3C[C@H](OC)[C@@H](O[C@H]4C[C@H](OC)[C@@H](O)[C@H](C)O4)[C@H](C)O3)[C@@H](C)/C=C/C=C3\CO[C@@H]4[C@H](O)C(C)=C[C@@H](C(=O)O1)[C@]34O)O2 [Ivermectin]
generation of ROS [1]: induces generation of ROS | induction of autophagy (breast cancer cells): potent inducer of autophagy | IC50 (4T1.2 cells): ≥ 2 µM | sensitivity of breast cancer cells versus normal cells [2]: higher sensitivity than normal cells
